ChEMBL document CHEMBL5154709, “Tetrazole derivatives bearing benzodiazepine moiety-synthesis and action mode against virulence of Candida albicans” (Eur J Med Chem, 2022)
Converted amounts (≈) assume the structure as drawn. The source made the active and inactive calls. The calls are words filed in the database; no cut-off is given here.

Legend:
Candida albicans [1] = test: Induction of reactive oxygen species generation in Candida albicans cnb1delta/cnb1delta mutant assessed as increase in ROS level at 16 ug/ml incubated for 18 hrs by DCFH-DA staining based flow cytometric analysis (reference value: 4.7+/- 5.9%); assay type: functional; conditions: dose 16 µg/ml
Candida albicans [2] = test: Fungicidal activity against Candida albicans SC5314 assessed as inhibition of fungal growth incubated for 48 hrs by M27-A3 based microdilution method; assay type: functional
Candida albicans [3] = test: Antifungal activity against Candida albicans SC5314 assessed as inhibition of fungal growth at 0.5 ug/ml incubated for 18 hrs by M27-A3 based microdilution method relative to control; assay type: functional
Candida albicans [4] = test: Antifungal activity against Candida albicans SC5314 assessed as inhibition of fungal growth at 2 ug/ml incubated for 48 hrs by M27-A3 based microdilution method relative to control; assay type: functional
Candida albicans [5] = test: Antifungal activity against Candida albicans assessed as inhibition of fungal growth measured after 48 hrs by M27-A3 based broth microdilution; assay type: functional
Candida albicans [6] = test: Antifungal activity against Candida albicans SC5314 assessed as inhibition of fungal growth at 0.5 ug/ml incubated for 48 hrs by M27-A3 based microdilution method relative to control; assay type: functional
Candida albicans [7] = test: Antifungal activity against Candida albicans SC5314 assessed as inhibition of fungal growth at 8 ug/ml incubated for 48 hrs by M27-A3 based microdilution method relative to control; assay type: functional
Candida albicans [8] = test: Antifungal activity against Candida albicans SC5314 assessed as inhibition of fungal growth at 4 ug/ml incubated for 18 hrs by M27-A3 based microdilution method relative to control; assay type: functional
Candida albicans [9] = test: Antifungal activity against Candida albicans SC5314 assessed as inhibition of fungal growth at 0.0625 ug/ml incubated for 18 hrs by M27-A3 based microdilution method relative to control; assay type: functional
Candida albicans [10] = test: Antifungal activity against Candida albicans SC5314 assessed as inhibition of fungal growth at 0.03125 ug/ml incubated for 18 hrs by M27-A3 based microdilution method relative to control; assay type: functional
Candida albicans [11] = test: Induction of apoptosis in Candida albicans SC5314 non-protoplast cells assessed as necrotic cells at 16 ug/ml incubated for 18 hrs by PI/Annexin V staining based flow cytometry assay; assay type: functional; conditions: dose 16 µg/ml
Candida albicans [12] = test: In vivo antifungal activity against Candida albicans SC5314 infected in Galleria mellonella larvae assessed as prevention of candidiasis at 16 ug/ml administered 1 hr prior to infection measured after 5 days by Hematoxylin and eosin staining; assay type: functional, organism-based; conditions: dose 16.0 µg/ml, time 5.0 day
Candida albicans [13] = test: In vivo antifungal activity against Candida albicans SC5314 infected in Galleria mellonella larvae assessed as survival rate of larvae at 16 ug/ml administered 1 hr post infection measured within 5 days by Hematoxylin and eosin staining; assay type: functional; conditions: SC5314, 120 h, time 5 day
Candida albicans [14] = test: Antifungal activity against Candida albicans SC5314 assessed as inhibition of fungal growth at 1 ug/ml incubated for 48 hrs by M27-A3 based microdilution method relative to control; assay type: functional
Candida albicans [15] = test: Induction of reactive oxygen species generation in Candida albicans SC5314 assessed as increase in ROS level at 16 ug/ml incubated for 18 hrs by DCFH-DA staining based flow cytometric analysis (reference value: 0.77+/- 0.4%); assay type: functional; conditions: dose 16 µg/ml
Candida albicans [16] = test: Antifungal against Candida albicans SC5314 biofilm co-cultured with African green monkey Vero cells assessed as apoptotic-like chromatin aggregation of intact hyphae by measuring green fluorescence emission at 16 ug/ml incubated for 18 hrs by PI/acridine orange double staining based confocal laser scanning microscopic analysis; assay type: functional, organism-based; conditions: dose 16.0 µg/ml
Candida albicans [17] = test: Antifungal activity against Candida albicans SC5314 assessed as inhibition of fungal growth at 0.125 ug/ml incubated for 18 hrs by M27-A3 based microdilution method relative to control; assay type: functional
Candida albicans [18] = test: Antifungal activity against Candida albicans SC5314 assessed as inhibition of fungal growth at 0.25 ug/ml incubated for 48 hrs by M27-A3 based microdilution method relative to control; assay type: functional
[19] = Toxicity in Galleria mellonella larvae assessed as melanization of larvae at 16 ug/ml measured every 24 hrs for 4 to 5 days relative to control; conditions: at 16 µg/mL, time 4-5 day
Candida albicans [20] = test: Antifungal activity against Candida albicans SC5314 assessed as inhibition of fungal growth at 0.125 ug/ml incubated for 48 hrs by M27-A3 based microdilution method relative to control; assay type: functional
Vero = test: Cytotoxicity against African green monkey Vero cells at > 64 ug/ml measured after 24 hrs by XTT assay; assay type: toxicity, cell-based; conditions: chlorocebus sabaeus, dose > 64 µg/ml
[21] = Cytotoxicity against human TR146 cells at more than 64 ug/ml measured after 24 hrs by XTT assay; assay type: toxicity, cell-based; conditions: tr146, 24 h, dose 64 µg/ml
Candida albicans [22] = test: Induction of apoptosis in Candida albicans SC5314 protoplast cells assessed as necrotic cells at 16 ug/ml incubated for 18 hrs by PI/Annexin V staining based flow cytometry assay; assay type: functional; conditions: dose 16 µg/ml
Candida albicans [23] = test: Antifungal activity against Candida albicans SC5314 assessed as inhibition of fungal growth at 4 ug/ml incubated for 48 hrs by M27-A3 based microdilution method relative to control; assay type: functional
Candida albicans [24] = test: Antifungal activity against Candida albicans SC5314 assessed as inhibition of fungal growth at 0.25 ug/ml incubated for 18 hrs by M27-A3 based microdilution method relative to control; assay type: functional
[25] = Toxicity in Galleria mellonella larvae assessed as change in morphology at 16 ug/ml measured after 5 days by Hematoxylin and eosin staining; conditions: 120 h, dose 16 µg/ml, time 5 day
Candida albicans [26] = test: Antifungal activity against Candida albicans SC5314 assessed as inhibition of fungal growth at 16 ug/ml incubated for 18 hrs by M27-A3 based microdilution method relative to control; assay type: functional
Candida albicans [27] = test: Induction of cell cycle arrest in Candida albicans SC5314 assessed as accumulation of cells in G0/G1 phase at 16 ug/ml incubated fro 18 hrs by PI staining based flow cytometry method; assay type: functional, organism-based; conditions: dose 16.0 µg/ml
Candida albicans [28] = test: Antifungal activity against Candida albicans assessed as inhibition of fungal growth measured after 48 hrs in presence of exogenous ergosterol by M27-A3 based broth microdilution; assay type: functional
Candida albicans [29] = test: Antifungal activity against Candida albicans SC5314 assessed as inhibition of fungal growth at 0.03125 ug/ml incubated for 48 hrs by M27-A3 based microdilution method relative to control; assay type: functional
Candida albicans [30] = test: Antifungal activity against Candida albicans SC5314 assessed as inhibition of fungal growth at 1 ug/ml incubated for 18 hrs by M27-A3 based microdilution method relative to control; assay type: functional
Candida albicans [31] = test: Antifungal activity against Candida albicans SC5314 assessed as inhibition of fungal growth at 2 ug/ml incubated for 18 hrs by M27-A3 based microdilution method relative to control; assay type: functional
Candida albicans [32] = test: Induction of reactive oxygen species generation in Candida albicans CNB1/cnb1delta mutant assessed as increase in ROS level at 16 ug/ml incubated for 18 hrs by DCFH-DA staining based flow cytometric analysis (reference value: 3.8+/- 4.2%); assay type: functional; conditions: dose 16 µg/ml
Candida albicans [33] = test: Antifungal against Candida albicans SC5314 biofilm assessed as amorphous layer of cell surface barrier at 16 ug/ml incubated for 18 hrs by Rho123 and Hoechst 33342 double staining based confocal laser scanning microscopic analysis; assay type: functional, organism-based; conditions: dose 16.0 µg/ml
Candida albicans [34] = test: Induction of reactive oxygen species generation in Candida albicans BWP17 assessed as increase in ROS level at 16 ug/ml incubated for 18 hrs by DCFH-DA staining based flow cytometric analysis (reference value: 7.2+/- 0.2%); assay type: functional; conditions: dose 16 µg/ml
Candida albicans [35] = test: In vivo antifungal activity against Candida albicans SC5314 infected in Galleria mellonella larvae assessed as survival rate of larvae at 16 ug/ml administered 1 hr prior to infection measured within 5 days by Hematoxylin and eosin staining; assay type: functional; conditions: SC5314, 120 h, time 5 day
Candida albicans [36] = test: Antifungal activity against Candida albicans SC5314 assessed as inhibition of fungal growth at 0.0625 ug/ml incubated for 48 hrs by M27-A3 based microdilution method relative to control; assay type: functional
Candida albicans [37] = test: Antifungal activity against Candida albicans SC5314 assessed as inhibition of fungal growth at 8 ug/ml incubated for 18 hrs by M27-A3 based microdilution method relative to control; assay type: functional
[38] = Toxicity in Galleria mellonella larvae assessed as melanization of larvae at 0.05 ug/ml measured every 24 hrs upto 5 days relative to control; conditions: 120 h, at 0.05 µg/mL, time < 5 day
Candida albicans [39] = test: Antifungal activity against Candida albicans SC5314 assessed as inhibition of fungal growth at 16 ug/ml incubated for 48 hrs by M27-A3 based microdilution method relative to control; assay type: functional

In the case of O=C1CN=C(c2ccccc2Br)c2cc(F)ccc2N1CCCn1nnc(-c2ccc(Cl)cc2)n1, the Activity (Candida albicans [1]) is reported as 3.35%, the “inhibition (INH)” value (Candida albicans [2]) is reported as 99.24% and the inhibition at 0.5 µg/mL (Candida albicans [3]) is reported as 99%. For the same molecule, the inhibition at 2 µg/mL (Candida albicans [4]) was 100%, the MIC (Candida albicans [5]) was 64 µg/mL (≈ 116 µM) and the inhibition at 0.5 µg/mL (Candida albicans [6]) was 99%. It also gave an inhibition at 8 µg/mL (Candida albicans [7]) of 99%, an inhibition at 4 µg/mL (Candida albicans [8]) of 99.2% and an inhibition at 0.0625 µg/mL (Candida albicans [9]) of 99.3%. For the same molecule, the inhibition at 0.03125 µg/mL (Candida albicans [10]) was 100%, the Activity (Candida albicans [11]) was 78.23% and the Activity (Candida albicans [12]) was “Active”. It also gave a survival at 16 µg/mL (Candida albicans [13]) of 100%, an inhibition at 1 µg/mL (Candida albicans [14]) of 99.1% and an Activity (Candida albicans [15]) of 19.6%. For the same molecule, the Activity (Candida albicans [16]) was “Active”, the inhibition at 0.125 µg/mL (Candida albicans [17]) was 98.9% and the inhibition at 0.25 µg/mL (Candida albicans [18]) was 100%. The Activity [19] was 17%, the inhibition at 0.125 µg/mL (Candida albicans [20]) was 98.9% and the Activity (Vero) was “Toxic”. The Activity [21] was “Non-Toxic”, the Activity (Candida albicans [22]) was 81.23% and the inhibition at 4 µg/mL (Candida albicans [23]) was 99.2%. The inhibition at 0.25 µg/mL (Candida albicans [24]) was 99.9%, the Activity [25] was “Non-Toxic” and the inhibition at 16 µg/mL (Candida albicans [26]) was 99.5%. For the same molecule, the Activity (Candida albicans [27]) was “Active”, the MIC (Candida albicans [28]) was 2.56 µg/mL and the inhibition at 0.03125 µg/mL (Candida albicans [29]) was 100%. For the same molecule, the inhibition at 1 µg/mL (Candida albicans [30]) was 99%, the inhibition at 2 µg/mL (Candida albicans [31]) was 99.8% and the Activity (Candida albicans [32]) was 4.2%. For the same molecule, the Activity (Candida albicans [33]) was “Active”, the Activity (Candida albicans [34]) was 6.8% and the survival at 16 µg/mL (Candida albicans [35]) was 95%. The inhibition at 0.0625 µg/mL (Candida albicans [36]) was 99.3% and the inhibition at 8 µg/mL (Candida albicans [37]) was 99%.

With C[C@@H]1[C@H](O)[C@@H](C)/C=C/C=C/C=C/C=C/C=C/C=C/C=C/[C@H](O[C@@H]2O[C@H](C)[C@@H](O)[C@H](N)[C@@H]2O)C[C@@H]2O[C@](O)(C[C@@H](O)C[C@@H](O)[C@H](O)CC[C@@H](O)C[C@@H](O)CC(=O)O[C@H]1C)C[C@H](O)[C@H]2C(=O)O [AMPHOTERICIN B] the inhibition at 0.5 µg/mL (Candida albicans [3]) was 100%, the Activity [38] was 10% and the inhibition at 2 µg/mL (Candida albicans [4]) was 100%. The inhibition at 0.5 µg/mL (Candida albicans [6]) was 100%, the inhibition at 8 µg/mL (Candida albicans [7]) was 100% and the inhibition at 4 µg/mL (Candida albicans [8]) was 100%. The inhibition at 0.0625 µg/mL (Candida albicans [9]) was 100%, the inhibition at 0.03125 µg/mL (Candida albicans [10]) was 100% and the inhibition at 1 µg/mL (Candida albicans [14]) was 100%. It also gave an inhibition at 0.125 µg/mL (Candida albicans [17]) of 100%, an inhibition at 0.25 µg/mL (Candida albicans [18]) of 100% and an inhibition at 0.125 µg/mL (Candida albicans [20]) of 100%. The inhibition at 4 µg/mL (Candida albicans [23]) was 100%, the inhibition at 0.25 µg/mL (Candida albicans [24]) was 100% and the inhibition at 16 µg/mL (Candida albicans [26]) was 100%. For the same molecule, the inhibition at 0.03125 µg/mL (Candida albicans [29]) was 100%, the inhibition at 1 µg/mL (Candida albicans [30]) was 100% and the inhibition at 2 µg/mL (Candida albicans [31]) was 100%. The inhibition at 0.0625 µg/mL (Candida albicans [36]) was 100%, the inhibition at 16 µg/mL (Candida albicans [39]) was 100% and the inhibition at 8 µg/mL (Candida albicans [37]) was 100%.
